Measured values reported in paper PMC3121759 (PLoS ONE, 2011).

How the values were obtained:
[1] = biological target: T1, GlyT-1 (Rattus norvegicus, UniProt P28572); assay: Drug inhibition of [3H]CHIBA-3007 binding to rat brain membranes; settings: [3H]CHIBA-3007 (1 nM), 120 min room temperature, mean ± S.E.M., n=3
T1 construct: the tissues of whole brains or each specific brain region were homogenized; from tissue; host or cells: rat brain (whole brain or dissected regions; male Crl:CD (SD) rats)
T1 sequence (P28572 1-638): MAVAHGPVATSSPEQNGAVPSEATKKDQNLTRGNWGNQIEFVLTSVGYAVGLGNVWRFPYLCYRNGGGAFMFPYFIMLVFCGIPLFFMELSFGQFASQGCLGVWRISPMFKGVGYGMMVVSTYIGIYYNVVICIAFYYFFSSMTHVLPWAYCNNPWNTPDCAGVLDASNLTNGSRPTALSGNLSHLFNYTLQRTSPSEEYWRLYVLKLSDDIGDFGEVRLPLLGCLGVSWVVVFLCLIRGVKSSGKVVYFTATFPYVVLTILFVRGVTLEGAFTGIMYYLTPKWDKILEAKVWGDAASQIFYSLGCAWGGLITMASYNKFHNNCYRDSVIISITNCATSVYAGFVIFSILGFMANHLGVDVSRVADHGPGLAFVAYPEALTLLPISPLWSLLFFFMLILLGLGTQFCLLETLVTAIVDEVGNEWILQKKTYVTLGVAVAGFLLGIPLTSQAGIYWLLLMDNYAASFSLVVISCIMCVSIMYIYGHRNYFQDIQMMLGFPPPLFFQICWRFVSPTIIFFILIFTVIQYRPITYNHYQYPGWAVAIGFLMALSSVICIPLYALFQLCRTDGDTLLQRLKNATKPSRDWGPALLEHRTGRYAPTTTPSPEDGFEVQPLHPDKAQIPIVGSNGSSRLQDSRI
Experimental: The supernatant was discarded and the pellet was re-suspended, homogenized and centrifuged as above. The membrane pellet was washed and re-suspended in ice-cold HEPES buffer and was then centrifuged three times. The final pellet was re-suspended in 15 volumes of the buffer (120 mM NaCl, 2 mM KCl, 1 mM CaCl2, 1 mM MgCl2 10 mM HEPES, pH 7.5 at room temperature).
The binding reaction was terminated by rapid vacuum filtration onto Whatman GF/B glass filters pretreated with 0.5% polyethyleneimine (Sigma-Aldrich Co.) using a 24-channel cell harvester (Brandell, Gaithersburg, MD). The filters were washed with 5 mL of ice-cold assay buffer 3 times, and placed in vials with 4 mL scintillation cocktail. The radioactivity trapped by the filters was determined using a liquid scintillation counter (Beckman LS-6500; Beckman Coulter K.K., Tokyo, Japan).
(§1) The data are shown as the mean ± standard error of the mean (S.E.M.). The dissociation constant (Kd) and maximal binding (Bmax) values from saturation binding and the IC50 values from binding displacement by each drug were determined using the program GraphPad Prism (GraphPad Software, San Diego, CA). […] Correlation was analyzed by Pearson's Correlation Coefficient (PASW Statistics 19, Tokyo, Japan). Significance was set at p<0.05.

[2] = tested on: Opiate (Non-selective); assay: Radioligand binding, [3H]Naloxone; settings: duplicate
Experimental: (§2) Table S1. Inhibition effect of CHIBA-3007 (1 µM) on radioligand binding to various receptors
(§3) Test substance concentration: 1 µM, Positive substance concentration : 10 µM
(§4) Data are expressed as the mean values of duplicate samples.
(§5) The % inhibition was calculated from “100 – binding ratio”.
(§6) Binding ratio: [(B - N) / (B0 - N)] × 100 (%) B: Bound radioactivity in the presence of test substance and positive substance (individual value), B0: Total bound radioactivity in the absence of test substance and positive substance (mean value), N: Non-specific bound radioactivity (mean value)

[3] = tested on: GABA- A (BZ central); assay: Radioligand binding, [3H]Flunitrazepam; settings: duplicate
Experimental: as §2, §3, §4, §5, §6

[4] = tested on: Glutamate (NMDA glycine site); assay: Radioligand binding, [3H]MDL105519; settings: [3H]MDL105519, 1 µM, duplicate
Experimental: as §2, §3, §4, §5, §6

[5] = tested on: Glutamate (NMDA agonist site); assay: Radioligand binding, [3H]CGP-39653; settings: [3H]CGP-39653, 1 µM, duplicate
Experimental: as §2, §3, §4, §5, §6

[6] = tested on: GABA -B; assay: Radioligand binding, [3H]GABA; settings: duplicate
Experimental: as §2, §3, §4, §5, §6

[7] = tested on: Serotonin 5-HT1A; assay: Radioligand binding, [3H]8-OH DPAT; settings: duplicate
Experimental: as §2, §3, §4, §5, §6

[8] = tested on: Histamine H1 (Central); assay: Radioligand binding, [3H]Pyrilamine; settings: duplicate
Experimental: as §2, §3, §4, §5, §6

[9] = tested on: Glutamate (AMPA); assay: Radioligand binding, [3H]AMPA; settings: duplicate
Experimental: as §2, §3, §4, §5, §6

[10] = tested on: α1-Adrenergic (Non-selective); assay: Radioligand binding, [3H]Prazosin; settings: duplicate
Experimental: as §2, §3, §4, §5, §6

[11] = tested on: Glutamate (Kainate); assay: Radioligand binding, [3H]Kainic acid; settings: duplicate
Experimental: as §2, §3, §4, §5, §6

[12] = tested on: Dopamine D1; assay: Radioligand binding, [3H]SCH23390; settings: Dopamine D1, [3H]SCH23390, 1 µM, duplicate
Experimental: as §2, §3, §4, §5, §6

[13] = tested on: Glutamate (Non-selective); assay: Radioligand binding, [3H]Glutamic acid; settings: duplicate
Experimental: as §2, §3, §4, §5, §6

[14] = tested on: Serotonin 5-HT3 (Human); assay: Radioligand binding, [3H]GR65630; settings: [3H]GR65630, 1 µM, duplicate
Experimental: as §2, §3, §4, §5, §6

[15] = tested on: GABA -A (Agonist site); assay: Radioligand binding, [3H]Muscimol; settings: duplicate
Experimental: as §2, §3, §4, §5, §6

[16] = tested on: Serotonin 5-HT2A; assay: Radioligand binding, [3H]Ketanserin; settings: duplicate
Experimental: as §2, §3, §4, §5, §6

[17] = tested on: Nicotinic Ni; assay: Radioligand binding, [3H]Nicotine; settings: duplicate
Experimental: as §2, §3, §4, §5, §6

[18] = tested on: Glutamate (NMDA phencyclidine site); assay: Radioligand binding, [3H]MK-801; settings: [3H]MK-801, 1 µM, duplicate
Experimental: as §2, §3, §4, §5, §6

[19] = 28 standard target binding profile; settings: 1 µM
Experimental: as §2, §3, §4, §5, §6

[20] = tested on: Muscarinic M1; assay: Radioligand binding, [3H]Pirenzepine; settings: Muscarinic M1, [3H]Pirenzepine, duplicate
Experimental: as §2, §3, §4, §5, §6

[21] = tested on: Muscarinic M2; assay: Radioligand binding, [3H]AF-DX-384; settings: Muscarinic M2, [3H]AF-DX-384, 1 µM, duplicate
Experimental: as §2, §3, §4, §5, §6

[22] = tested on: Glycine (Strychnine sensitive); assay: Radioligand binding, [3H]Strychnine; settings: duplicate
Experimental: as §2, §3, §4, §5, §6

[23] = tested on: β-Adrenergic (Non-selective); assay: Radioligand binding, [3H]DHA; settings: duplicate
Experimental: as §2, §3, §4, §5, §6

[24] = tested on: Histamine H2; assay: Radioligand binding, [3H]Cimetidine; settings: Histamine H2, [3H]Cimetidine, duplicate
Experimental: as §2, §3, §4, §5, §6

[25] = tested on: Adenosine A1; assay: Radioligand binding, [3H]DPCPX; settings: Adenosine A1, [3H]DPCPX, duplicate
Experimental: as §2, §3, §4, §5, §6

[26] = tested on: Histamine H3; assay: Radioligand binding, [3H]N-methyl histamine; settings: Histamine H3, [3H]N-methyl histamine, duplicate
Experimental: as §2, §3, §4, §5, §6

[27] = biological target: T1, GlyT-1; assay: Inhibition of [14C]glycine uptake in rat brain membranes; assay type: biochemical
Experimental: The homogenate was centrifuged at 1,000 g for 10 min to remove nuclei and debris, and then the supernatant was centrifuged again at 20,000 g for 20 min (synaptosomal P2 fraction). The pellet was washed and re-suspended in ice-cold 0.32 M sucrose, buffered with 10 mM HEPES (pH 7.4) and centrifuged again at 20,000 g for 20 min (washed P2 fraction). The pellet was re-suspended in 10 volumes of assay buffer with the following composition: 10 mM HEPES buffer (pH 7.4) containing 140 mM NaCl, 5.5 mM KCl, 1.8 mM CaCl2, 0.8 mM MgSO4, 5 mM glucose and 5 mM L-alanine (HB). The protein concentrations were measured by using a DC protein assay kit (Bio-Rad Laboratories Inc., Tokyo, Japan).
Non-specific uptake was estimated in the presence of 30 µM SSR504734. […] The filters were washed by buffer, and the radioactivity trapped by the filters was determined using a liquid scintillation counter as described above.
as §1

[28] = tested on: α2-Adrenergic (Non-selective); assay: Radioligand binding, [3H]RX821002; settings: [3H]RX821002, 1 µM, duplicate
Experimental: as §2, §3, §4, §5, §6

[29] = tested on: Dopamine D2; assay: Radioligand binding, [3H]Spiperone; settings: Dopamine D2, [3H]Spiperone, duplicate
Experimental: as §2, §3, §4, §5, §6

[30] = tested on: Adenosine A2; assay: Radioligand binding, [3H]CGS21680; settings: Adenosine A2, [3H]CGS21680, 1 µM, duplicate
Experimental: as §2, §3, §4, §5, §6

[31] = tested on: Sigma (Non-selective); assay: Radioligand binding, [3H]DTG; settings: duplicate
Experimental: as §2, §3, §4, §5, §6

## CN1CCCC[C@@H]1[C@@H](NC(=O)c1nccc(C(F)(F)F)c1Cl)c1ccsc1 [CHIBA-3007, 3-Chloro-N-((S)-((R)-1-methylpiperidin-2-yl)(thiophen-3-yl)methyl)-4-(trifluoromethyl)picolinamide]
[1]
  Ki: 0.0028 ± 0.00017 µM
[2]
  % Inhibition (1 µM): 43.44%
[3]
  % Inhibition (1 µM): 2.78%
[4]
  % Inhibition (1 µM): 4.02%
[5]
  % Inhibition (1 µM): 8.17%
[6]
  % Inhibition (1 µM): 8.19%
[7]
  % Inhibition (1 µM): 35.22%
[8]
  % Inhibition (1 µM): 1.83%
[9]
  % Inhibition (1 µM): 3.27%
[10]
  % Inhibition (1 µM): 1.13%
[11]
  % Inhibition (1 µM): 1.50%
[12]
  % Inhibition (1 µM): 2.32%
[13]
  % Inhibition (1 µM): 1.91%
[14]
  % Inhibition (1 µM): 7.36%
[15]
  % Inhibition (1 µM): 0.20%
[16]
  % Inhibition (1 µM): 30.56%
[17]
  % Inhibition (1 µM): 2.10%
[18]
  % Inhibition (1 µM): 3.80%
[19]
  Inhibition in 28 standard target binding profile: lower than 50%
[20]
  % Inhibition (1 µM): 8.35%
[21]
  % Inhibition (1 µM): 16.31%
[22]
  % Inhibition (1 µM): 0.00%
[23]
  % Inhibition (1 µM): 8.39%
[24]
  % Inhibition (1 µM): 3.80%
[25]
  % Inhibition (1 µM): 2.12%
[26]
  % Inhibition (1 µM): 0.00%
[27]
  IC50: 0.0214 ± 0.0084 µM
[28]
  % Inhibition (1 µM): 20.98%
[29]
  % Inhibition (1 µM): 1.00%
[30]
  % Inhibition (1 µM): 5.86%
[31]
  % Inhibition (1 µM): 24.20%
